# In patent US11504434B2, “Compositions and methods for targeted delivery of therapeutic and/or diagnostic agents” (THE PENN STATE RESEARCH FOUNDATION, priority 2016, dated 2022):
# Legend:
# THP-1 cells = assay: CCK-8 cell viability, THP-1; type: cell-based; conditions: free drug, up to 100 μg/ml, 24 hrs
# Description: (§1) Pharmacological Studies. First, free PLX4032 toxicity and selectivity were confirmed by adding PLX4032 solutions at different concentrations into 96 well plates with THP-1, 1205Lu and WM35 cells separately (cell seeding density=5,000 cells/well). After 24 hrs incubation, the cells were washed with PBS twice and supplemented with 10 μl CCK-8 in 100 μl RPM-1640 medium in each well. After 2 hrs incubation, the absorbance at 450 nm of each well was measured by a micro-plate reader (TECAN infinite M200 PRO) and converted to the cell viability by normalized to control (tissue culture plates). Next, MTP-BPLP-PLA nanoparticles with and without PLX4032 loaded were dispersed in RPMI-1640 medium in various concentrations, followed by incubation with THP-1, 1205lu and WM35 cells (2,000 cells/well) separately in same conditions for 7 days. At last, MTP-BPLP-PLA-PLX4032 loaded THP-1 cells and pristine THP-1 cells were seeded with 1205lu or WM35 cells (2,000 cells/well) together with different ratios for 7 days, respectively. The cell viabilities were tested by CCK-8 assays as well.
# WM35 cells = assay: CCK-8 cell viability, WM35; type: cell-based, human
# Description: as §1
# 1205Lu cells = assay: CCK-8 cell viability, 1205Lu; type: cell-based, human
# Description: as §1
# [1] = PLX4032 concentration higher than 5 μg/ml, 24 hrs
smiles,measurement,setting,value
CCCS(=O)(=O)Nc1ccc(F)c(C(=O)c2c[nH]c3ncc(-c4ccc(Cl)cc4)cc23)c1F [PLX4032],THP-1 cell viability reduction,THP-1 cells,no significant viability reduction
same,free PLX4032 toxicity to WM35,"WM35 cells; 50 ng/ml, 24 hrs incubation",selectively killed
same,kill of melanomas (WM35),WM35 cells; [1],~100%
same,free PLX4032 toxicity to 1205Lu,"1205Lu cells; 50 ng/ml, 24 hrs incubation",selectively killed
same,kill of melanomas (1205Lu),1205Lu cells; [1],~100%
